Among the data in publication PMC6326728, “eIF2B activator prevents neurological defects caused by a chronic integrated stress response” (eLife, 2019) are inhibition values, retold here.

Assay in all cases: biochemical
Set-up in all cases: CEREP panel radioligand binding displacement, % inhibition of control specific binding by 10 uM 2BAct

Test [1] deals with T1, a1A (h) (Homo sapiens, UniProt P35348).
T1 construct: gene ADRA1A
The following applies: Type=Antagonist radioligand; read-out: % inhibition of Control specific binding. On the procedure: (§1) Supplementary file elife-42940-supp1.xlsx: Supplementary file 1. (A) Binding of 2BAct at 10 μM to the CEREP panel of receptors/enzymes/ion channels. Compound binding was calculated as a % inhibition of the binding of a radioactively labeled ligand specific for each target. Results showing inhibition or stimulation higher than 50% are considered to represent significant effects of the test compound. (B) Pharmacokinetic data from 2BAct dosing in mice. (C) GO Biological Processes identified by enrichment analysis of RNA-seq data. (D) List of genes used for enrichment analysis of scRNA-seq data.

Test [2] deals with T2, ET-B (h) (Homo sapiens, UniProt P24530).
T2 construct: gene EDNRB
The following applies: Type=Agonist radioligand; read-out: % inhibition of Control specific binding. On the procedure: as §1

For test [3], the target named is T3, 5-HT1B (Rattus norvegicus, UniProt P28564).
T3 construct: gene Htr1b
Conditions: Type=Antagonist radioligand; read-out: % inhibition of Control specific binding. The method, then:
as §1

Test [4] concerns the target T4, k (KOP) (Rattus norvegicus, UniProt P34975).
T4 construct: gene Oprk1
Conditions: Type=Agonist radioligand; read-out: % inhibition of Control specific binding. On the procedure:
as §1

Test [5] concerns the target T5, Estrogen ER alpha (h) (Homo sapiens, UniProt P03372).
T5 construct: gene ESR1
Conditions: Type=Agonist radioligand; read-out: % inhibition of Control specific binding. On the procedure: as §1

Test [6] addresses T6, 5-HT2A (h) (Homo sapiens, UniProt P28223).
T6 construct: gene HTR2A
Conditions: Type=Antagonist radioligand; read-out: % inhibition of Control specific binding. The method, then:
as §1

Test [7] concerns the target T7, MAO-A (Rattus norvegicus, UniProt P21396).
T7 construct: gene Maoa
The following applies: Type=Antagonist radioligand; read-out: % inhibition of Control specific binding. The method, then: as §1

The target in test [8] is T8, norepinephrine transporter (h) (Homo sapiens, UniProt P23975).
T8 construct: gene SLC6A2
Conditions: Type=Antagonist radioligand; read-out: % inhibition of Control specific binding. On the procedure: as §1

The target in test [9] is T9, AT1 (h) (Homo sapiens, UniProt P30556).
T9 construct: gene AGTR1
Conditions: Type=Antagonist radioligand; read-out: % inhibition of Control specific binding. On the procedure: as §1

Test [10] has as its target T10, 5-HT2B (h) (Homo sapiens, UniProt P41595).
T10 construct: gene HTR2B
Conditions: Type=Agonist radioligand; read-out: % inhibition of Control specific binding. On the procedure: as §1

Test [11] addresses T11, b1 (h) (Homo sapiens, UniProt P08588).
T11 construct: gene ADRB1
The following applies: Type=Agonist radioligand; read-out: % inhibition of Control specific binding. The method, then: as §1

The target of test [12] is T12, NK1 (h) (Homo sapiens, UniProt P25103).
T12 construct: gene TACR1
Conditions: Type=Agonist radioligand; read-out: % inhibition of Control specific binding. The method, then:
as §1

Test [13] has as its target T13, 5-HT2C (h) (Homo sapiens, UniProt P28335).
T13 construct: gene HTR2C
The following applies: Type=Antagonist radioligand; read-out: % inhibition of Control specific binding. On the procedure:
as §1

Test [14] deals with T14, 5-HT4E (h) (Homo sapiens, UniProt Q13639).
T14 construct: gene HTR4; isoform 4E
Conditions: Type=Antagonist radioligand; read-out: % inhibition of Control specific binding. The method, then:
as §1

Test [15] has as its target T15, V1a (h) (Homo sapiens, UniProt P37288).
T15 construct: gene AVPR1A
Conditions: Type=Agonist radioligand; read-out: % inhibition of Control specific binding. On the procedure:
as §1

For test [16], the target named is T16, CGRP (h) (Homo sapiens, UniProt Q16602).
T16 construct: gene CALCRL
The following applies: Type=Agonist radioligand; read-out: % inhibition of Control specific binding. On the procedure:
as §1

Test [17] deals with T17, H1 (h) (Homo sapiens, UniProt P35367).
T17 construct: gene HRH1
The following applies: Type=Antagonist radioligand; read-out: % inhibition of Control specific binding. On the procedure:
as §1

Test [18] has as its target T18, a1B (h) (Homo sapiens, UniProt P35368).
T18 construct: gene ADRA1B
The following applies: Type=Antagonist radioligand; read-out: % inhibition of Control specific binding. The method, then:
as §1

Test [19] has as its target T19, m (MOP) (h) (Homo sapiens, UniProt P35372).
T19 construct: gene OPRM1
Conditions: Type=Agonist radioligand; read-out: % inhibition of Control specific binding. The method, then:
as §1

Test [20] addresses T20, A1 (h) (Homo sapiens, UniProt P30542).
T20 construct: gene ADORA1
The following applies: Type=Antagonist radioligand; read-out: % inhibition of Control specific binding. On the procedure:
as §1

Test [21] addresses T21, BZD (peripheral) (Rattus norvegicus, UniProt P16257).
T21 construct: gene Tspo; peripheral
Conditions: Type=Antagonist radioligand; read-out: % inhibition of Control specific binding. The method, then:
as §1

The target of test [22] is T22, B2 (h) (Homo sapiens, UniProt P30411).
T22 construct: gene BDKRB2
Conditions: Type=Agonist radioligand; read-out: % inhibition of Control specific binding. The method, then: as §1

T15 sequence (P37288 whole entry): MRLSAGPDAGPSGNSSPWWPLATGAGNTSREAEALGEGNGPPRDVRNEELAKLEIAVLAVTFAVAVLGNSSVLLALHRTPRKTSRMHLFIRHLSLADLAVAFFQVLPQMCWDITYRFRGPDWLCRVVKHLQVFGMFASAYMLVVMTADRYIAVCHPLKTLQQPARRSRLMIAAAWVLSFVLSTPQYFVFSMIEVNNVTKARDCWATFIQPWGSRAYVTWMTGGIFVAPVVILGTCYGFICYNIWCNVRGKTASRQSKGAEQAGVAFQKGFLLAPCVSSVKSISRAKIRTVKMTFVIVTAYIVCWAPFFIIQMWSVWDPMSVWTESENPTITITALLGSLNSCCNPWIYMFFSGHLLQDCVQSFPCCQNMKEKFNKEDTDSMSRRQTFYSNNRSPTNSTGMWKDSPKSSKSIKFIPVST
T4 sequence (P34975 whole entry): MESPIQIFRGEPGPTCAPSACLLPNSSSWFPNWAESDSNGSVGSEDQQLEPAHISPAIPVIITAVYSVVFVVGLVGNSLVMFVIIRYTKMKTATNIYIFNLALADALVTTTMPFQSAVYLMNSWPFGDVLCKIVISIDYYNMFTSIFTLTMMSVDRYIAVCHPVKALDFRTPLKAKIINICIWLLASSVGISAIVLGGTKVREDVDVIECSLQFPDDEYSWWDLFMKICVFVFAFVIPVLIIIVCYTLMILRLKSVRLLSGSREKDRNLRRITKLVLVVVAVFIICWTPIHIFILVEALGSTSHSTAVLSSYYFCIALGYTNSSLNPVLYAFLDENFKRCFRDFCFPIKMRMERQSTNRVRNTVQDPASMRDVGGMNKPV
T3 sequence (P28564 whole entry): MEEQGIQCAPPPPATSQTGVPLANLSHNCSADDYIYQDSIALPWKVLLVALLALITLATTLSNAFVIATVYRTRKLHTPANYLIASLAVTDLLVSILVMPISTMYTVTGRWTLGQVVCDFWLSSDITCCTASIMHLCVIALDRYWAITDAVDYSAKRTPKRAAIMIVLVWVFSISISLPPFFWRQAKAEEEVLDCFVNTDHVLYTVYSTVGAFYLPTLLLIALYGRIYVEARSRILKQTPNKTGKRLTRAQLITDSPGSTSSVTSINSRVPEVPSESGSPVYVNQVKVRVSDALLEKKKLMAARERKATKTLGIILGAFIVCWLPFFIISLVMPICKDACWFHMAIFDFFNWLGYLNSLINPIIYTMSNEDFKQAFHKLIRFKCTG
T14 sequence (Q13639 whole entry, canonical isoform): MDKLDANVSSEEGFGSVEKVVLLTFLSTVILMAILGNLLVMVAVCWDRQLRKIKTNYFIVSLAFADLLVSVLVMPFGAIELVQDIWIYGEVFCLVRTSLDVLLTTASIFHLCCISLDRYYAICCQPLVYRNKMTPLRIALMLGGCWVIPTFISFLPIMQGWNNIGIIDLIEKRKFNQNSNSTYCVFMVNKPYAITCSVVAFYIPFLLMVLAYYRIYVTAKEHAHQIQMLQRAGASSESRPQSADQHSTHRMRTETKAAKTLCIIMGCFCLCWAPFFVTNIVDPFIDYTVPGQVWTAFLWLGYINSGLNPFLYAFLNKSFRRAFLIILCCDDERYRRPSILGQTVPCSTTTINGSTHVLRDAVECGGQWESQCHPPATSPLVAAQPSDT
T22 sequence (P30411 whole entry): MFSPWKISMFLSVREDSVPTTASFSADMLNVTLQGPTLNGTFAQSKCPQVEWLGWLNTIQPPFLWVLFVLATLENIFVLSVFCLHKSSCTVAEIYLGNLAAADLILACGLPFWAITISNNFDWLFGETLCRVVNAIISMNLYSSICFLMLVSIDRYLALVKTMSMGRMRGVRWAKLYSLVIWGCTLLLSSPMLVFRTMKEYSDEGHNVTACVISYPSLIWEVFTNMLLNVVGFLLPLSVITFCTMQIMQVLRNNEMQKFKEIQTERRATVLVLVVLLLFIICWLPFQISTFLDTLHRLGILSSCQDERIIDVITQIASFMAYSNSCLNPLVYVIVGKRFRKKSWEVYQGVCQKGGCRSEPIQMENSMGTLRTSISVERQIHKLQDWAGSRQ
T18 sequence (P35368 whole entry): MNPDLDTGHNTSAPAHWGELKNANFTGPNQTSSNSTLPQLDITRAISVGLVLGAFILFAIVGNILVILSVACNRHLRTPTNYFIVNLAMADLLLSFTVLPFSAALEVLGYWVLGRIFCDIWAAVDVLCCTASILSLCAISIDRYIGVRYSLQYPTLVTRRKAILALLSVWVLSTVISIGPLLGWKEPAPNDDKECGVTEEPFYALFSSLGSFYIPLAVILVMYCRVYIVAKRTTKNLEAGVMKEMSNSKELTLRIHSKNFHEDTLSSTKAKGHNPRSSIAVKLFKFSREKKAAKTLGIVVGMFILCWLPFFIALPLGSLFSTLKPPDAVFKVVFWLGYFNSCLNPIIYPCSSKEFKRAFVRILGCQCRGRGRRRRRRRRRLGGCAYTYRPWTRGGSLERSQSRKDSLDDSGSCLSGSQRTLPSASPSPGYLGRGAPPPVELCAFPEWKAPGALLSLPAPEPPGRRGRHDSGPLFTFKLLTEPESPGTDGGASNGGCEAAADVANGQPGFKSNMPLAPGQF
T2 sequence (P24530 whole entry): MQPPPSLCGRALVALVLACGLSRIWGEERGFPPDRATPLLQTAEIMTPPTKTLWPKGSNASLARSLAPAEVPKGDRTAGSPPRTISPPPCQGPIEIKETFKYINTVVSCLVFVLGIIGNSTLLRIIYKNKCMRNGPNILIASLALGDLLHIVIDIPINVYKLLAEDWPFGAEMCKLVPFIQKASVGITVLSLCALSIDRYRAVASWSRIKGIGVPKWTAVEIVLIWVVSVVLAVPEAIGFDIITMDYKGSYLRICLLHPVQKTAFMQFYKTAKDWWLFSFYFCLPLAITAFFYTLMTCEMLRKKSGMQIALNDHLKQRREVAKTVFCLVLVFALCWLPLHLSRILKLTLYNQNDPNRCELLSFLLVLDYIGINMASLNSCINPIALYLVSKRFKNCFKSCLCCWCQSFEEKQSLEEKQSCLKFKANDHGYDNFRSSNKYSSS
T6 sequence (P28223 whole entry): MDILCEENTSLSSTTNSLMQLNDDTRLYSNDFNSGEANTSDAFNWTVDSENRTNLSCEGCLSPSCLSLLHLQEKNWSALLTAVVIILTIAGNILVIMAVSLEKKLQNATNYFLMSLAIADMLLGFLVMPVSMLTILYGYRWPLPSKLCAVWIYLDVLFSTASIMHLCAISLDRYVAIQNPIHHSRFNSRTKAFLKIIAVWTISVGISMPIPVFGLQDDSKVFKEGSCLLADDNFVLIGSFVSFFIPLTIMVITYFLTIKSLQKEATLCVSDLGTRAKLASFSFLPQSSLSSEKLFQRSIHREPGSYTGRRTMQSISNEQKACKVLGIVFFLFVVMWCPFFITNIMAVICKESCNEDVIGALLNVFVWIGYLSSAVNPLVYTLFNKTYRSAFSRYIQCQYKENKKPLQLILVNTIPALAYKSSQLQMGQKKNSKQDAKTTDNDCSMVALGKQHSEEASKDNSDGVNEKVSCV
T9 sequence (P30556 whole entry): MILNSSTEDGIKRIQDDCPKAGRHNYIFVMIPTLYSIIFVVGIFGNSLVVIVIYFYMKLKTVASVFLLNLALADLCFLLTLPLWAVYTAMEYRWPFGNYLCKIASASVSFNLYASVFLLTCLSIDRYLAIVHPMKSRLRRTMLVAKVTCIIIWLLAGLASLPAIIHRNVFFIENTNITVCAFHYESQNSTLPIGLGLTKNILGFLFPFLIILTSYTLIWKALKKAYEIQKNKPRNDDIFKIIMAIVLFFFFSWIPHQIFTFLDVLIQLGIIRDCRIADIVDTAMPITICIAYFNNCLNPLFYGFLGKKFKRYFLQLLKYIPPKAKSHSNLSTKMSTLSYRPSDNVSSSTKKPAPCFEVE
T12 sequence (P25103 whole entry): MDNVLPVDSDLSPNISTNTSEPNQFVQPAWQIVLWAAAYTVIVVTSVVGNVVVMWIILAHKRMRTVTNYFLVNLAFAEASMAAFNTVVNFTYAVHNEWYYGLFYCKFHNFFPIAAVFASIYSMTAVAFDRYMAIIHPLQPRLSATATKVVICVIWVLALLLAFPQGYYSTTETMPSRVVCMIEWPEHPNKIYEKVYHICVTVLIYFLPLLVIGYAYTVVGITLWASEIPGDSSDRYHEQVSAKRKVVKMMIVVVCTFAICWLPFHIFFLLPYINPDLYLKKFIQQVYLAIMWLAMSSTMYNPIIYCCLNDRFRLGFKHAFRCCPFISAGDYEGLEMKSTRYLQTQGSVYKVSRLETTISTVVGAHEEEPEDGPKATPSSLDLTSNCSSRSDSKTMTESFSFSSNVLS
T17 sequence (P35367 whole entry): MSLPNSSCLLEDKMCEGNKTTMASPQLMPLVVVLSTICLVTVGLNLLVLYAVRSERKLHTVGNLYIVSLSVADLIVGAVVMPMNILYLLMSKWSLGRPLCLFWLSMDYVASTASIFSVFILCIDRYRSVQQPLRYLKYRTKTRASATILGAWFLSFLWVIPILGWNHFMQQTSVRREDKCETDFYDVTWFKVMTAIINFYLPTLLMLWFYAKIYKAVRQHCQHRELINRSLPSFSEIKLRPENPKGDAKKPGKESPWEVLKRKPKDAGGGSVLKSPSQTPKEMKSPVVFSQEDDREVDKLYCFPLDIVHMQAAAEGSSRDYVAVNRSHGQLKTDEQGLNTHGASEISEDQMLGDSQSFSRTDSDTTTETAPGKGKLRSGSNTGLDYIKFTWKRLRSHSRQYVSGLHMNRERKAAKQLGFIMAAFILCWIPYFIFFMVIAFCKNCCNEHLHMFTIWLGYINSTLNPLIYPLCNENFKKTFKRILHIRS
T21 sequence (P16257 whole entry): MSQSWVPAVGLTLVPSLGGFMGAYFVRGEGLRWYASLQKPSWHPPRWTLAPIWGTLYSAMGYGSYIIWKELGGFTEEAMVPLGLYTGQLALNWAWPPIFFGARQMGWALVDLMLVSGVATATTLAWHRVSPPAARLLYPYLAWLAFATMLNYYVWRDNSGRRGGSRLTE

As usually defined, the inhibition is the relative decrease from the control value, in per cent. With `O=C(COc1ccc(Cl)c(F)c1)NC12CC(NC(=O)c3cnc(C(F)F)cn3)(C1)C2` [2BAct], the inhibition at 10 µM is 6.6% in [1]; 6% in test [2]; -8.8% in [3]; 2.1% in [4]; -7.7% in test [5]; 10.8% in [6]. In addition, the inhibition at 10 µM in test [7] came out at 10.2%; in test [8] it was 61%; in test [9] it was 13.2%; in test [10], 8.6%; in test [11], 7.8%; in test [12] it was 29.1%. For the same compound, the inhibition at 10 µM is 38.7% in test [13]; 8.2% in test [14]; 6.4% in test [15]; -4.8% in [16]; 0.2% in test [17]; -14.2% in test [18]. The inhibition at 10 µM was determined as 3% in [19], 2.1% in test [20], 36.2% in test [21] and 8.7% in [22].
